Values after ≈ are worked out from the molar mass of the structure shown.
Experiments:
[1] = cited from earlier work
[2] = In vivo plasma PK after intravenous dosing; settings: mice, i.v. dosing at 5 mg/kg
in vitro [3] = settings: human, Caco-2
Mtb H37Rv = assay: In vivo mouse efficacy, established murine TB model; set-up: species or system Balb/c mice; settings: for Mean log lung CFU reduction ± SEM compared to untreated controls / Mean log lung CFU ± SEM / log reduction at 25 mg/kg / log reduction at 100 mg/kg: 5 animals; for Efficacy compared with PA-824, in words: significance at P<0.05; for Dose dependence of efficacy, in words: 25 versus 100 mg/kg oral daily for 4 weeks; for log reduction at 25 mg/kg / log reduction at 100 mg/kg: Mycobacterium tuberculosis, H37RV, po, 672 h, read-out: Mean log lung CFU reduction ± SEM compared to untreated controls
Protocol: In vivo mouse efficacy studies were determined after intranasal infection of Balb/c mice with 10^3 cfu Mtb H37Rv. Treatment was initiated 4 weeks after infection. Compounds were orally administered in CM-2 formulation for 4 weeks daily. Bacterial loads were determined at 2 and 4 weeks post treatment. Statistical analysis was done by a one-way analysis of variance, followed by a multiple comparison analysis of variance by a one-way Tukey test (GraphPad Prism, version 5.02, San Diago, California USA, www.graphpad.com). Differences were considered statistically significant at the 95% level of confidence.

[4] = female, CD-1, mouse, in vivo, po, 25 mg/kg
in vivo [5] = settings: female, CD-1, mouse, po, 25 mg/kg
[6] = In vivo lung PK after oral dosing; settings: female, CD-1, mouse, 25 mg/kg
[7] = not given; remark: listed apart in the source
in vivo [8] = settings: female, CD-1, mouse, po, 25 mg/kg; remark: listed apart in the source
[9] = In vivo plasma PK after oral dosing in CM-2 formulation; settings: female, CD-1, mouse, plasma, po, 25 mg/kg
[10] = test system: M. tuberculosis (Mtb) (H37Rv, ATCC 27294); assay: microbe, parasite or virus in culture; assay type: cell-based; settings: for MIC99: Mycobacterium tuberculosis
[11] = female, CD-1, mouse, in vivo, po, 25 mg/kg; remark: listed apart in the source
[12] = Cytotoxicity against THP1 macrophage cell lines; assay type: cell-based; settings: human
in vitro [13] = settings: mouse, plasma
in vivo [14] = settings: female, CD-1, mouse, iv, 5 mg/kg; for clearance: i.v. CL
[15] = 25 mg/kg oral daily for 4 weeks
[16] = 100 mg/kg oral daily for 4 weeks

## CC[C@H]1OC(=O)[C@H](C)[C@@H](O[C@H]2C[C@@](C)(OC)[C@@H](O)[C@H](C)O2)[C@H](C)[C@@H](O[C@@H]2O[C@H](C)C[C@H](N(C)C)[C@H]2O)[C@](C)(O)C[C@@H](C)CN(C)[C@H](C)[C@@H](O)[C@]1(C)O [Azithromycin]
[1]
  AUC lung/serum: 21
  Vss: 33 L/kg

## O=[N+]([O-])c1cn2c(n1)OC[C@@H](NCc1ccc(OC(F)(F)F)c(Cl)c1)C2 [NI-135]
physchem
  logP: 3
[2]; female, CD-1, mouse, plasma, iv, 5 mg/kg, T1/2 (i.v)
  half-life: 4 h
In vitro [3]
  Papp A→B: 23.4 ×10⁻⁶ cm/s
  Papp B→A: 15.3 ×10⁻⁶ cm/s
  efflux ratio: 0.6
Mtb H37Rv; [15]
  Mean log lung CFU reduction ± SEM compared to untreated controls: 1.48 ± 0.07 log CFU
  Mean log lung CFU ± SEM: 4.76±0.07 log CFU
  Efficacy compared with PA-824, in words: comparable efficacy to PA-824
  log reduction at 25 mg/kg: 1.48 ± 0.07
Mtb H37Rv; [16]
  Mean log lung CFU ± SEM: 4.36±0.07 log CFU
  Efficacy compared with PA-824, in words: comparable efficacy to PA-824
  log reduction at 100 mg/kg: 1.88 ± 0.07
Mtb H37Rv
  Dose dependence of efficacy, in words: dose dependent increase in efficacy
other
  Solubility pH 6.8: 77.0 µg/mL
[4]
  Plasma free fCmax: 0.1 µg/mL
In vivo [5]
  Tmax: 0.5 h
In vivo [5]; Lung to Plasma ratio AUC24
  Kp: 3.9
In vivo [5]; Lung to Plasma ratio Cmax
  Kp: 4.6
[6]
  half-life: 3.3 h
[7]
  PAMPA %FA: 90%
  PAMPA Log Pe: –4.5 cm/sec
In vivo [8]
  AUC: 4800 ng·h/mL
  Cmax: 1200 ng/mL
  Tmax: 0.5 h
  bioavailability: 51%
[9]
  half-life: 2.9 h
[10]
  In vitro potency relative to PA-824: 10 times
  MIC99: 0.03 µg/mL (≈ 0.0764 µM)
[11]
  Absolute lung concentrations, fold lower than PA-824: 2.5-7.5 fold
  Lung AUC24: 18.6 µg·h/g
  Lung Cmax: 5.5 µg/g
[12]
  CC50: > 10 µg/mL
In vitro [13]
  fraction unbound: 0.085
In vivo [14]
  Vd: 4.2 L/kg
  clearance: 41 mL/min/kg

## O=[N+]([O-])c1cn2c(n1)OC[C@@H](NCc1ccc(OC(F)(F)F)c(F)c1)C2 [NI-136]
physchem
  logP: 2.6
[2]
  T1/2 (i.v): 1.3 h
In vitro [3]
  Papp A→B: 15.4 ×10⁻⁶ cm/s
  Papp B→A: 12.6 ×10⁻⁶ cm/s
  efflux ratio: 0.8
Mtb H37Rv; [15]
  Mean log lung CFU reduction ± SEM compared to untreated controls: 1.31 ± 0.06 log CFU
  Mean log lung CFU ± SEM: 4.93±0.06 log CFU
  Efficacy compared with PA-824, in words: comparable efficacy to PA-824
  log reduction at 25 mg/kg: 1.31 ± 0.06
Mtb H37Rv; [16]
  Mean log lung CFU ± SEM: 4.18±0.17 log CFU
  Efficacy compared with PA-824, in words: comparable efficacy to PA-824
  log reduction at 100 mg/kg: 2.06 ± 0.17
Mtb H37Rv
  Dose dependence of efficacy, in words: dose dependent increase in efficacy
other
  Solubility pH 6.8: 43.0 µg/mL
[4]
  Plasma free fCmax: 0.3 µg/mL
In vivo [5]
  Tmax: 0.5 h
In vivo [5]; Lung to Plasma ratio AUC24
  Kp: 3.7
In vivo [5]; Lung to Plasma ratio Cmax
  Kp: 3.6
[6]
  half-life: 2.5 h
[7]
  PAMPA %FA: 83%
  PAMPA Log Pe: –4.7 cm/sec
In vivo [8]
  AUC: 10700 ng·h/mL
  Cmax: 2000 ng/mL
  Tmax: 0.5 h
  bioavailability: 64%
[9]
  half-life: 2 h
[10]
  In vitro potency relative to PA-824: 10 times
  MIC99: 0.03 µg/mL (≈ 0.0797 µM)
[11]
  Absolute lung concentrations, fold lower than PA-824: 2.5-7.5 fold
  Lung AUC24: 39.8 µg·h/g
  Lung Cmax: 7.2 µg/g
[12]
  CC50: > 10 µg/mL
In vitro [13]
  fraction unbound: 0.173
In vivo [14]
  Vd: 1.8 L/kg
  clearance: 25.1 mL/min/kg

Reference: article PMC4139342, “Pharmacokinetics-Pharmacodynamics Analysis of Bicyclic 4-Nitroimidazole Analogs in a Murine Model of Tuberculosis” (PLoS ONE, 2014)
